Data published in patent publication US20250283049A1, “AGENT FOR CULTURING ORGANOID IN ABSENCE OF EXTRACELLULAR MATRIX” (KEIO UNIVERSITY, priority 2022, published 2025).

Key:
[1] = system: crypts isolated from human large intestine-derived tissue; assay: Organoid establishment from isolated crypts in absence of Matrigel; time-course ATP and passaging; assay type: cell-based; details: Lats-IN 10 μM, without Lats-IN died after second passage
Procedure: Crypts were isolated from human small intestine- and large intestine-derived tissues. The isolated crypts were cultured in the absence of Matrigel (registered trademark) and in the absence or presence of Lats-IN (final concentration: 10 μM).
FIG. 10 is a graph showing the results of a time-course measurement of proliferation of the crypts isolated from the human large intestine-derived tissue over time. The cell proliferation was measured by measuring ATP using a commercially available kit (product name “CellTiter-Glo 3D,” Promega Corporation). The vertical axis of the graph represents luminescence intensity (relative value) indicating the amount of ATP present.

[2] = system: human large intestine-derived organoids; assay: Niche factor removal; organoid proliferation by ATP (CellTiter-Glo 3D); assay type: cell-based; details: absence of Matrigel; Lats-IN 10 μM; some WRENAIF niche factors removed
Procedure: (§1) In this experimental example, the relationship between LATS inhibition and the niche factors essential for organoid culture was examined. FIG. 14 presents graphs showing the results of measuring the proliferation of human small intestine-derived organoids and human large intestine-derived organoids cultured under conditions in which all WRENAIF niche factors were added, and under conditions in which some of these niche factors were removed. As a medium to which all of the WRENAIF niche factors were added, the medium whose composition is shown in Table 1 above was used, and as a medium from which some of these niche factors were removed, a medium from which the corresponding niche factors were removed from the medium whose composition is shown in Table 1 above was used. The cell proliferation was measured by measuring ATP using a commercially available kit (product name “CellTiter-Glo 3D,” Promega Corporation). The vertical axis of the graph represents luminescence intensity (relative value) indicating the amount of ATP present.
(§2) In addition, on the horizontal axis, added niche factors are shown in black, and niche factors not added are shown in light color.

[3] = system: human small intestine-derived organoids; assay: as above; assay type: cell-based; details: absence of Matrigel; Lats-IN 10 μM; some WRENAIF niche factors removed
Procedure: as §1, §2

[4] = system: immunodeficient mouse (NOG mouse) colon; assay: Orthotopic xenotransplantation of organoids established in absence of Matrigel; assay type: in vivo; details: organoids established in absence of Matrigel and presence of TRULI, 1×10^7 cells
Excerpt: The human colon-derived organoids established in the absence of Matrigel (registered trademark) and in the presence of TRULI in Experimental Example 22 were orthotopically xenotransplanted into an immunodeficient mouse (NOG mouse) to examine whether they would engraft.
FIG. 31 is a schematic view explaining an overview of this experimental example. The human colon-derived organoids established in the absence of Matrigel (registered trademark) and in the presence of TRULI were electroporated with a green fluorescent protein (GFP) expression vector to obtain GFP-labeled human colon-derived organoids.
Subsequently, the GFP-labeled human colon-derived organoids were dissociated into single cells and then pre-cultured for 4 days in a medium supplemented with 2% Matrigel (registered trademark) or 2% collagen gel (50% type IA, 50% type IC). […]
Subsequently, the total cell number of the pre-cultured GFP-labeled human colon-derived organoids was counted, and the cells were suspended in Advanced DMEM/F12 medium supplemented with 10% (vol/vol) Matrigel (registered trademark) or type IA collagen. […]

[5] = system: human large intestine-derived organoids dissociated into single cells; assay: Organoid formation from single cells (Examination 2); assay type: cell-based; details: absence of Matrigel, presence of TRULI 10 μM
Procedure: After dissociating human large intestine-derived organoids into single cells, organoid formation from the single cells was observed.
FIG. 27 is a graph showing the results of organoid formation from the single cells in the presence (+) or absence (−) of Matrigel (registered trademark) and in the absence (−) or presence (+, final concentration: 10 μM) of TRULI. […] In addition, the vertical axis of the graph represents the percentage (%) of cells that formed organoids among the seeded single cells.

[6] = system: human large intestine-derived organoid; assay: Culture of organoids in presence of Matrigel and LATS kinase inhibitor; cell number by ATP (CellTiter-Glo 3D); assay type: cell-based; details: presence of Matrigel; 10 mM Lats-IN as printed; 7 days of culture; vs control without Lats-IN
Procedure: A human small intestine-derived organoid and a human large intestine-derived organoid were cultured in the presence of an inhibitor of LATS1 kinase and LATS2 kinase, Lats-IN-1 (CAS No. 1424635-83-5, hereinafter sometimes referred to as “Lats-IN” and also referred to as “TRULI”), and their dynamics were observed.
The human small intestine-derived organoid and the human large intestine-derived organoid used were those established from tissues derived from patients with gastrointestinal tumors who provided informed consent, in accordance with an ethical research plan approved by the Ethics Committee of the Keio University School of Medicine.
Each organoid was dissociated into single cells using TrypLE Express (Thermo Fisher Scientific Inc.) to obtain a cell suspension. […]
The cell proliferation was measured by measuring adenosine triphosphate (ATP) using a commercially available kit (product name “CellTiter-Glo 3D,” Promega Corporation).
The lower left panel of FIG. 2 is a photograph of a control (Ctrl) human large intestine-derived organoid cultured in the absence of Lats-IN, and the lower center panel of FIG. 2 is a photograph of a human large intestine-derived organoid cultured in the presence of Lats-IN. […] The vertical axis of the graph represents luminescence intensity (relative value) indicating the amount of ATP present.

Question: Which “passaging and proliferation of isolated crypts (organoid establishment)” value [1] does the source give for O=C(N=c1sccn1Cc1ccccc1)c1c[nH]c2ncccc12 [Lats-IN] here?
Answer: able to undergo passage almost continuously without cessation of cell proliferation

Question: What about the “cell proliferation without one or two niche factors” value [2] of the same molecule?
Answer: cells proliferated

Question: And the “cell proliferation without one or two niche factors” value [3]?
Answer: cells proliferated

Question: And the “engraftment of human colon-derived organoids established with TRULI” value [4]?
Answer: could engraft

Question: And the “organoid formation from single cells” value [5]?
Answer: proliferated from single cells and formed organoids

Question: And the “cell proliferation (cell number per well, ATP luminescence)” value [6]?
Answer: significantly activated
